The values below come from patent publication US11484593B2, “Atropisomers of halogenated tetraphenylbacteriochlorins and chlorins and their use in photodynamic therapy” (LUZITIN, S.A., priority 2015, dated 2022).

In series [1] the test system is HT-29 (human colon carcinoma) cells. Put plainly: In vitro phototoxicity, resazurin cell viability after irradiation at 749 nm. In kind it is cell-based. The conditions noted are these: light dose 1 J/cm^2 at 749 nm, 24 h incubation.
The nature of series [2]: Absorption spectra / molar absorption coefficients (Beer-Lambert) in ethanol. The conditions noted are these: for ε/10^3: infrared absorption maximum. It counts as physicochemical.
Series [3] has as its system CT26 (mouse colon carcinoma) cells. Put plainly: In vitro phototoxicity, resazurin cell viability after irradiation at 749 nm. In kind it is cell-based.
Series [4] can be described thus: Triplet lifetimes by nanosecond laser flash photolysis, excitation at 355 nm. It counts as physicochemical. The conditions noted are these: triplet lifetime in aerated ethanol.
For series [5] the following is noted: photodecomposition quantum yield, aerated methanol:PBS (3:2), 749 nm, 640 mW.
Series [6] is described as follows: Singlet oxygen quantum yield in ethanol (phosphorescence at 1270 nm, phenalenone reference). It counts as physicochemical. The conditions noted are these: aerated ethanol.
For series [7], the system named is subcutaneous CT26 tumor. Briefly: Vascular-PDT of subcutaneous CT26 tumor in BALB/c mice with enriched atropisomer compositions (Example 7). It counts as in vivo. The conditions noted are these: nominal 0.7 mg/kg i.v., 15 min later 55 J on 1.33 cm^2.
For series [8] the following is noted: in ethanol, reference; cited from earlier work.
The mark [9] stands for this setting: light dose 1 J/cm^2 at 749 nm, 24 h incubation.
Where [10] appears, read: light dose 1 J/cm^2 at 749 nm, extrapolated from non-linear regression curve.

SMILES strings stand for the structures.

With `CNS(=O)(=O)c1ccc(F)c(-c2c3nc(c(-c4c(F)ccc(S(=O)(=O)NC)c4F)c4ccc([nH]4)c(-c4c(F)ccc(S(=O)(=O)NC)c4F)c4nc(c(-c5c(F)ccc(S(=O)(=O)NC)c5F)c5ccc2[nH]5)CC4)CC3)c1F` (single isomer, unassigned) [LUZ11-B], the IC50 in series [1] stood at 0.178 µM; in series [3] (light dose 1 J/cm^2, Table 1), 1.46 µM; in series [3] (setting [9]), 1.46 µM. The IC90 is 0.433 µM in series [1] and 7.53 µM in series [3] (setting [10]). In series [2], this compound displayed a λmax of 743 nm. Also, the “ε/10^3” value in series [2] was found to be 137 M^−1 cm^−1. Moreover, the “τT (air)” value in series [4] is reported as 296 ± 33 ns. For the same compound, the “ΦPD/10^−6” value in series [5] stood at 15. For the same compound, the ΦΔ in series [6] came to 0.35.

In series [1], `CNS(=O)(=O)c1ccc(F)c(-c2c3nc(c(-c4c(F)ccc(S(=O)(=O)NC)c4F)c4ccc([nH]4)c(-c4c(F)ccc(S(=O)(=O)NC)c4F)c4nc(c(-c5c(F)ccc(S(=O)(=O)NC)c5F)c5ccc2[nH]5)CC4)CC3)c1F` [LUZ11] gave an IC50 of 0.367 µM and an IC90 of 0.588 µM. In series [3] (setting [9]), the IC50 was determined as 0.871 µM and it took 4.31 µM to reach the 90% level (IC90). In series [7], the “long-term cures (tumor-free 60 days after the treatment)” value is recorded as “not possible to obtain long-term cures” and the median survival time is on record as 20 days.

As for `O=C1C=Cc2cccc3cccc1c23` [phenalenone], the “singlet oxygen quantum yield ΦΔ (literature value)” value in series [8] is 0.95.

For the compound `CNS(=O)(=O)c1ccc(F)c(-c2c3nc(c(-c4c(F)ccc(S(=O)(=O)NC)c4F)c4ccc([nH]4)c(-c4c(F)ccc(S(=O)(=O)NC)c4F)c4nc(c(-c5c(F)ccc(S(=O)(=O)NC)c5F)c5ccc2[nH]5)CC4)CC3)c1F` (single isomer, unassigned) [LUZ11-A], the IC50 was 0.343 µM in series [1]; 67.3 µM in series [3] (light dose 1 J/cm^2, Table 1, extrapolated from non-linear regression curve); 67.3 µM in series [3] (setting [10]). Further, the IC90 in series [1] was 1.01 µM; in series [3] (setting [10]), 2830 µM. This compound also had a λmax in series [2] of 743 nm. Besides, in series [2], the “ε/10^3” value worked out at 126 M^−1 cm^−1. Moreover, the “τT (air)” value in series [4] worked out at 257 ± 7 ns. For the same compound, the “ΦPD/10^−6” value in series [5] is given as 15. Besides, in series [6], the ΦΔ is recorded as 0.39.

As to `CNS(=O)(=O)c1ccc(F)c(-c2c3nc(c(-c4c(F)ccc(S(=O)(=O)NC)c4F)c4ccc([nH]4)c(-c4c(F)ccc(S(=O)(=O)NC)c4F)c4nc(c(-c5c(F)ccc(S(=O)(=O)NC)c5F)c5ccc2[nH]5)CC4)CC3)c1F` [sample X], in series [7], the “long-term cures (tumor-free 60 days after the treatment)” value is recorded as “absence of long-term cures”, the median survival time worked out at 18 days and the “median survival time shorter than with the LUZ11 sample” value is given as 2 days.
